Experimental data published in publication PMC9572521, “Synthesis, Docking Studies and Pharmacological Evaluation of Serotoninergic Ligands Containing a 5-Norbornene-2-Carboxamide Nucleus” (Molecules, 2022).
Where two headings read alike, the source gives them in different places.

Legend:
5-HT1A receptor = target: T1, 5-HT1A receptor (Rattus norvegicus, UniProt P19327); assay: Functional 5-HT1A receptor [35S]GTPγS assay (agonist mode); type: biochemical; details: for Emax: read-out: 5-HT1A Receptor G-Protein Stimulation Emax (%) ± SEM;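 for all read-outs here: male Sprague-Dawley rat hippocampal membranes incubated 90 min at 37 °C, bound label counted by scintillation after filtration, non-specific binding defined with 100 µM unlabeled GTPγS, one-site curve fit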
T1 construct: 15 μg/mL of hippocampus homogenate was incubated in triplicate with 0.8 nM; from tissue; host or cells: rat hippocampus homogenate
T1 sequence (P19327 1-422): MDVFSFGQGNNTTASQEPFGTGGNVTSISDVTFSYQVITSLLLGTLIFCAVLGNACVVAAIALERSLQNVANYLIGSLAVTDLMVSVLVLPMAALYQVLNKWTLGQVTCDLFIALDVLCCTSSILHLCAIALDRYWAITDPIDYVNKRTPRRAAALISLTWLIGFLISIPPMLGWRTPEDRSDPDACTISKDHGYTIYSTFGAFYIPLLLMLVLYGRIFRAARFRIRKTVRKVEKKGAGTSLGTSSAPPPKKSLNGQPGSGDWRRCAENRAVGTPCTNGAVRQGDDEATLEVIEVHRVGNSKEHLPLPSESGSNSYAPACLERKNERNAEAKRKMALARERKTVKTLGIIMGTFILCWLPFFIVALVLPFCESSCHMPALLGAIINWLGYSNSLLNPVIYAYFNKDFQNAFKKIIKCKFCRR

D2 receptor = target: T2, D2 receptor (Rattus norvegicus, UniProt P61169); assay: Functional D2 receptor [35S]GTPγS assay (antagonist mode vs dopamine; basal for agonism); type: biochemical; details: against 40 µM dopamine, rat striatal homogenate;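 note: [35S]GTPγS binding counted by scintillation after 60 min at 30 °C, nonspecific binding defined with 100 µM unlabeled GTPγS, inhibition curves fitted by one-site nonlinear regression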
T2 construct: 15μg/mL of striatal homogenate was incubated in triplicate; from tissue; host or cells: rat striatum homogenate
T2 sequence (P61169 whole entry): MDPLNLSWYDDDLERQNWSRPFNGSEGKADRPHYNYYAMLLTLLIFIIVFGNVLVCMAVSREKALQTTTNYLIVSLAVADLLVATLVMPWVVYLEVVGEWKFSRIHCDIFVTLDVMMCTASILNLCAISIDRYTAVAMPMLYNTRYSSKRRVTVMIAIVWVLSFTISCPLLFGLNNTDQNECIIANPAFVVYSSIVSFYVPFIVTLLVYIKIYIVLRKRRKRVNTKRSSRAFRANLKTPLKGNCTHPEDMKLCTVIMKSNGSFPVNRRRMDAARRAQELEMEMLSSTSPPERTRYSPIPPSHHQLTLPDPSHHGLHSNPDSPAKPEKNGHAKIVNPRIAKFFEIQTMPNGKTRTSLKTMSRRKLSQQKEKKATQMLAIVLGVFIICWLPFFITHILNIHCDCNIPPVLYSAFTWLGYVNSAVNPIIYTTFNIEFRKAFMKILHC

5-HT2A receptor = 5-HT2A receptor (Rattus norvegicus, UniProt P14842); assay: 5-HT2A competition binding assay ([3H]ketanserin, frontal cortex homogenates)
Sequence of 5-HT2A receptor (P14842 whole entry): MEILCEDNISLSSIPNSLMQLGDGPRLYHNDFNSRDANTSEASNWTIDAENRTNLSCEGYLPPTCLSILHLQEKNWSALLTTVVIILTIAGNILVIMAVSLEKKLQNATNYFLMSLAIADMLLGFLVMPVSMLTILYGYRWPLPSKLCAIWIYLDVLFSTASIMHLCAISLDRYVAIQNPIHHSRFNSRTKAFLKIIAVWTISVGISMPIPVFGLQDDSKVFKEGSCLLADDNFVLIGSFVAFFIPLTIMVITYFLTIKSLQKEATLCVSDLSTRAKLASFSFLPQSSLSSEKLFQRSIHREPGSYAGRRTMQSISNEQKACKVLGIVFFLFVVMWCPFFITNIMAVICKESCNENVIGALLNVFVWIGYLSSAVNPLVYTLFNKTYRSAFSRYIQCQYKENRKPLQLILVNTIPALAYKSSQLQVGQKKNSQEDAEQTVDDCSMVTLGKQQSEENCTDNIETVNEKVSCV

human 5-HT2C receptor = target: T3, human 5-HT2C receptor (Homo sapiens, UniProt P28335); assay: 5-HT2C competition binding assay ([3H]mesulergine, transfected cell membranes)
T3 sequence (P28335 33-458): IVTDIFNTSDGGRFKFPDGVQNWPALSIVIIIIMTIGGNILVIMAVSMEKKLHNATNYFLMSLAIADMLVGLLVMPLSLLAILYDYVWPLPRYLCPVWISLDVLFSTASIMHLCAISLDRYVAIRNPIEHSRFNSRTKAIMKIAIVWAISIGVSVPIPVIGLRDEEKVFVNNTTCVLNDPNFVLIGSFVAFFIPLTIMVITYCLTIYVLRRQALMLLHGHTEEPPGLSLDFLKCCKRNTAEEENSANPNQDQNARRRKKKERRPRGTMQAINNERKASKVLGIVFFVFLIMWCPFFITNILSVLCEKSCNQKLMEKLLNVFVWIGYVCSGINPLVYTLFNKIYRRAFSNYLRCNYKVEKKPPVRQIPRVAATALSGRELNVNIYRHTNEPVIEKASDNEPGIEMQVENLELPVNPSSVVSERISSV

[1] = [35S]GTPγS, rat hippocampus homogenate, read-out: 5-HT1A Receptor G-Protein Stimulation EC50 (95% CI)
[2] = [35S]GTPγS, rat hippocampus homogenate
[3] = read-out: D2 receptor antagonistic activity IC50 (95% CI)
[4] = read-out: D2 receptor antagonistic activity pIC50 (M ± SEM) (converted)
[5] = [3H]mesulergine, human 5-HT2C membranes, read-out: 5-HT2C Ki (95% CI)
[6] = [3H]mesulergine, human 5-HT2C membranes, ± SEM, read-out: 5-HT2C pKi (converted)
[7] = [35S]GTPγS, rat hippocampus homogenate, ± SEM
[8] = ± SEM, read-out: 5-HT2A pKi (converted)

Row | SMILES | EC50 (5-HT1A receptor; [1]) | Emax (5-HT1A receptor; [2]) | IC50 (D2 receptor; [3]) | Ki (5-HT2A receptor; read-out: 5-HT2A Ki (95% CI)) | Ki (human 5-HT2C receptor; [5]) | 5-HT1A Receptor G-Protein Stimulation Emax (%) ± SEM (5-HT1A receptor; [2]) | also measured
1 | COc1ccccc1N1CCN(CCCNC(=O)C2CC3C=CC2C3)CC1 (single isomer, unassigned) [Norbo-6, endo-N-(3-(4-(2-methoxyphenyl)piperazin-1-yl)propyl)bicyclo[2.2.1]hept-5-ene-2-carboxamide] | 3220 nM | 131 ± 5.5% | 59500 nM | 88.7 nM | 1030 nM |  | IC50 (D2 receptor; [4]): 60300 nM
2 | CCCN(CCC)C1CCc2cccc(O)c2C1 (stereo not shown) [Norbo 8-OH-DPAT, reference compound] |  |  |  |  |  |  | Emax (5-HT1A receptor): 154 ± 2.3%
3 | O=C(NCCCN1CCN(c2ccccc2)CC1)C1CC2C=CC1C2 (stereo not drawn) [Norbo-1, Exo-N-(3-(4-phenylpiperazin-1-yl)propyl)bicyclo[2.2.1]hept-5-ene-2-carboxamide] | 1200 nM | 174 ± 4.15% | 101000 nM | 74 nM | 3890 nM |  | 
4 | O=C(NCCCN1CCN(c2ccccc2)CC1)C1CC2C=CC1C2 (stereo not drawn) [Norbo-2, endo-N-(3-(4-phenylpiperazin-1-yl)propyl)bicyclo[2.2.1]hept-5-ene-2-carboxamide] | 1630 nM |  | 106000 nM | 99.1 nM | 1610 nM | 188 ± 4.9 % | EC50 (5-HT1A receptor; [35S]GTPγS, rat hippocampus homogenate, ± SEM, read-out: 5-HT1A Receptor G-Protein Stimulation pEC50 (converted)): 1660 nM
5 | Cc1cccc(N2CCN(CCCNC(=O)C3CC4C=CC3C4)CC2)c1C (stereo not drawn) [Norbo-3, Exo-N-(3-(4-(2,3-dimethylphenyl)piperazin-1-yl)propyl)bicyclo[2.2.1]hept-5-ene-2-carboxamide] | 177 nM | 185 ± 3.2% | 71000 nM | 23.5 nM | 250 nM |  | 
6 | COc1ccc(N2CCN(CCCNC(=O)C3CC4C=CC3C4)CC2)cc1 (stereo not drawn) [Norbo-7, Exo-N-(3-(4-(4-methoxyphenyl)piperazin-1-yl)propyl)bicyclo[2.2.1]hept-5-ene-2-carboxamide] | 348 nM | 169 ± 3.5% | 51500 nM | 105 nM | 51.3 nM |  | 
7 | COc1ccc(N2CCN(CCCNC(=O)C3CC4C=CC3C4)CC2)cc1 (stereo not drawn) [Norbo-8, endo-N-(3-(4-(4-methoxyphenyl)piperazin-1-yl)propyl) bicyclo[2.2.1]hept-5-ene-2-carboxamide] | 165 nM |  | 60400 nM | 127 nM | 398 nM | 167 ± 2.3 % | 
8 | O=C(NCCCN1CCN(c2ccccc2Cl)CC1)C1CC2C=CC1C2 (stereo not drawn) [Norbo-9, Exo-N-(3-(4-(2-chlorophenyl)piperazin-1-yl)propyl) bicyclo[2.2.1]hept-5-ene-2-carboxamide] | 207 nM | 149 ± 3.1% | 20100 nM | 109 nM | 2790 nM |  | IC50 (D2 receptor; [4]): 20400 nM
9 | O=C(NCCCN1CCN(c2ccccc2Cl)CC1)C1CC2C=CC1C2 (stereo not drawn) [Norbo-10, endo-N-(3-(4-(2-chlorophenyl)piperazin-1-yl)propyl)bicyclo[2.2.1]hept-5-ene-2-carboxamide] | 198 nM |  | 21500 nM | 254 nM | < 40 nM | 163 ± 2.4 % | Ki (human 5-HT2C receptor; [6]): 13.5 nM
10 | O=C(NCCCN1CCN(c2ccc(Cl)cc2)CC1)C1CC2C=CC1C2 (stereo not drawn) [Norbo-11, Exo-N-(3-(4-(4-chlorophenyl)piperazin-1-yl)propyl)bicyclo[2.2.1]hept-5-ene-2-carboxamide] |  |  | 31200 nM | 149 nM | < 40 nM | no activity | 5-HT1A Receptor G-Protein Stimulation EC50 (95% CI, nM) (5-HT1A receptor; [2]): no activity; 5-HT1A Receptor G-Protein Stimulation pEC50 (5-HT1A receptor; [7]): no activity; IC50 (D2 receptor; [4]): 31600 nM; Ki (human 5-HT2C receptor; [6]): 30.9 nM
11 | O=C(NCCCN1CCN(c2ccc(Cl)cc2)CC1)C1CC2C=CC1C2 (stereo not drawn) [Norbo-12, endo-N-(3-(4-(4-chlorophenyl)piperazin-1-yl)propyl)bicyclo[2.2.1]hept-5-ene-2-carboxamide] | 1870 nM | 127 ± 5.1% | 100000 nM | 227 nM | 34900 nM |  | IC50 (D2 receptor; [4]): 102000 nM
12 | O=C(NCCCN1CCN(c2ccc(Cl)c(Cl)c2)CC1)C1CC2C=CC1C2 (stereo not drawn) [Norbo-13, Exo-N-(3-(4-(3,4-dichlorophenyl)piperazin-1-yl)propyl)bicyclo[2.2.1]hept-5-ene-2-carboxamide] |  |  | 68900 nM | 28.8 nM | 122 nM | no activity | 5-HT1A Receptor G-Protein Stimulation EC50 (95% CI, nM) (5-HT1A receptor; [2]): no activity; 5-HT1A Receptor G-Protein Stimulation pEC50 (5-HT1A receptor; [7]): no activity
13 | O=C(NCCCN1CCN(c2ccccc2F)CC1)C1CC2C=CC1C2 (stereo not drawn) [Norbo-15, Exo-N-(3-(4-(2-fluorophenyl)piperazin-1-yl)propyl)bicyclo[2.2.1]hept-5-ene-2-carboxamide] | 926 nM |  | 62700 nM | 82.6 nM | 31 nM | 161 ± 4.5% | Ki (human 5-HT2C receptor; [6]): 31.6 nM
14 | O=C(NCCCN1CCN(c2ccccn2)CC1)C1CC2C=CC1C2 (stereo not drawn) [Norbo-21, Exo-N-(3-(4-(pyridin-2-yl)piperazin-1-yl)propyl)bicyclo[2.2.1]hept-5-ene-2-carboxamide] | 588 nM | 181 ± 2.5% | 181000 nM | 258 nM | 1340 nM |  | 
15 | O=C(NCCCN1CCN(c2ccccn2)CC1)C1CC2C=CC1C2 (stereo not drawn) [Norbo-22, endo-N-(3-(4-(pyridin-2-yl)piperazin-1-yl)propyl)bicyclo[2.2.1]hept-5-ene-2-carboxamide] | 782 nM |  | 125000 nM |  | 873 nM | 186 ± 4.4 % | Ki (5-HT2A receptor; [8]): 355 nM
16 | O=C(NCCCN1CCN(c2ncccn2)CC1)C1CC2C=CC1C2 (stereo not drawn) [Norbo-23, Exo-N-(3-(4-(pyrimidin-2-yl)piperazin-1-yl)propyl)bicyclo[2.2.1]hept-5-ene-2-carboxamide] | 2400 nM | 181 ± 4.1% | 255000 nM | 1080 nM | 353 nM |  | 
17 | O=C(NCCCN1CCN(c2ncccn2)CC1)C1CC2C=CC1C2 (stereo not drawn) [Norbo-24, endo-N-(3-(4-(pyrimidin-2-yl)piperazin-1-yl)propyl)bicyclo[2.2.1]hept-5-ene-2-carboxamide] | 1720 nM |  | 206000 nM |  | 211 nM | 177 ± 6.1 % | Ki (5-HT2A receptor; [8]): 1380 nM; Ki (human 5-HT2C receptor; [6]): 214 nM
18 | COc1cc(OC)c(C(=O)CCCCN2CCC3(CC2)NC(=O)NC3=O)cc1NS(=O)(=O)c1ccc(C(F)(F)F)cc1 [RS102221, reference compound] |  |  |  |  |  |  | 5-HT2C pKi (human 5-HT2C receptor): 8.25 ± 0.21; Ki (human 5-HT2C receptor; read-out: 5-HT2C Ki (95% CI)): 5.56 nM
